This is an account of results in PubChem BioAssay (NCI).

Common to all, as to experiment: NCI-60 cell line screen, 48 h
For assay [1], the system named is DMS 114 small cell lung.
The test system of assay [2] is KM20L2 colon.
For assay [3], the system named is DMS 273 small cell lung.
The subject of assay [4] is LXFL 529 NSCLC.
For assay [5], the system named is XF 498 CNS.
The subject of assay [6] is RXF-631 renal.
In assay [7] the test system is DLD-1 colon.
Assay [8] concerns HOP-18 NSCLC.
In assay [9] the test system is SNB-78 CNS.

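96-well plates; 48 h exposure; 5 concentrations. Endpoints by linear interpolation between flanking doses. Not reached: highest tested concentration assigned. TGI is the concentration that stops growth completely.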

Take `COc1ccc(/C=c2\sc3n(c2=O)C(N)=C(C#N)C(c2ccc(OC)cc2)C=3c2nc3ccccc3[nH]2)cc1` (stereo not drawn): the TGI in assay [1] is 72.9 µM; in assay [2] it was over 100 µM; in [3] it was over 100 µM.
In the case of `CCOC(=O)C1=C(C)N(c2ccc(C)cc2)C2=C(C(=O)N(c3ccccc3)C2c2ccccc2)C1c1ccccc1` (stereo not drawn), the TGI in assay [4], in [5], in assay [6], in assay [1], in [7] and in [2] was over 25 µM each time. In assay [3], this compound came in with a TGI of over 25 µM.
As for `CCC1CN2CCc3c([nH]c4ccccc34)C2C[C@@H]1CC(=O)N(C)C` (stereo partly drawn), the TGI in [8], in assay [4], in assay [5], in assay [1], in [9] and in [7] was over 100 µM each time. The TGI in assay [2] and in assay [3] was over 100 µM each time.
For the compound `CN1CCC(CN2c3ccccc3Sc3ccccc32)CC1`, the TGI turned out to be 27.5 µM in assay [8]; 27.5 µM in assay [4]; 23.9 µM in [5]; 29.8 µM in assay [1]; 30 µM in [9]; 28.3 µM in assay [7]. Also, the TGI in [2] is 25.8 µM; in assay [3], 26.2 µM.
Regarding `Cc1ccc(S(=O)(=O)OCC23CCC(CC2)C2CC23)cc1` (stereo not drawn), the TGI in assay [8], in [4], in assay [6], in assay [1], in assay [7] and in [2] was over 100 µM throughout. For the same compound, in assay [3], the TGI was over 100 µM.
